Holding throughout (experiment): SelectScreen Kinase Profiling, single point inhibition and IC50 for off-target kinases
Common to all, as to type: biochemical

For experiment [1], the target named is off-target kinases (Homo sapiens, UniProt O00311). As to conditions: CDC7/DBF4, LanthaScreen Binding.
Experiment [2] deals with T1, off-target kinases (Homo sapiens, UniProt O14920).
T1 sequence (O14920 1-756): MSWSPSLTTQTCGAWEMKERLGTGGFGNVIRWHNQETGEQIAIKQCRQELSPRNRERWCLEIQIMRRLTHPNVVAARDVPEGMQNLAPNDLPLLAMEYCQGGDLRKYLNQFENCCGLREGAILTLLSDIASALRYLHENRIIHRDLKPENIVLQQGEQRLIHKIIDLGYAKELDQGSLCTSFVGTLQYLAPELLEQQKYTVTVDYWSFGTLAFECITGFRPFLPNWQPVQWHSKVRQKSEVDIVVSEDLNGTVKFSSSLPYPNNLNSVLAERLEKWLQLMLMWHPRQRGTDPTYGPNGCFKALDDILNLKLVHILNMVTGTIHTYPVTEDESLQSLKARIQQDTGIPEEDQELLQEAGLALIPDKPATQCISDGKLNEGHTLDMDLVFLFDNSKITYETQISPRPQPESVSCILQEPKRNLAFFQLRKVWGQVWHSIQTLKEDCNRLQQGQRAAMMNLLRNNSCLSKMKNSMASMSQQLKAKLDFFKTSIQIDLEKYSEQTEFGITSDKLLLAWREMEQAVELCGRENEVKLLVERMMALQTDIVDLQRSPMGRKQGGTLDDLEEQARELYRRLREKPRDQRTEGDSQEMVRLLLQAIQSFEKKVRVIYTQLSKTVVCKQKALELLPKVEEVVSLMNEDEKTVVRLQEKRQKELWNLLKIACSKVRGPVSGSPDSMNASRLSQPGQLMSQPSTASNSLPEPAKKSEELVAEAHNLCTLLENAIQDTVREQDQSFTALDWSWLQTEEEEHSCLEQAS
Conditions: IKBKB (IKK beta), ATP Km app, ZLYTE.

For experiment [3], the target named is off-target kinases (Homo sapiens, UniProt P10721, T670I). As to conditions: KIT T670I (mutant), ZLYTE, ATP Km app.
In experiment [4] the target is off-target kinases (Homo sapiens, UniProt P68400). As to conditions: CSNK2A1 (CK2 alpha 1), ZLYTE, ATP Km app.
Experiment [5] has as its target off-target kinases (Homo sapiens, UniProt Q02763, R849W). As to conditions: TEK (TIE2) R849W, mutant y, LanthaScreen Binding. In general terms: TR-FRET usually uses a lanthanide donor and a delayed reading to cut background.
In experiment [6] the target is T2, off-target kinases (Homo sapiens, UniProt Q9UEE5).
T2 sequence (Q9UEE5 1-414): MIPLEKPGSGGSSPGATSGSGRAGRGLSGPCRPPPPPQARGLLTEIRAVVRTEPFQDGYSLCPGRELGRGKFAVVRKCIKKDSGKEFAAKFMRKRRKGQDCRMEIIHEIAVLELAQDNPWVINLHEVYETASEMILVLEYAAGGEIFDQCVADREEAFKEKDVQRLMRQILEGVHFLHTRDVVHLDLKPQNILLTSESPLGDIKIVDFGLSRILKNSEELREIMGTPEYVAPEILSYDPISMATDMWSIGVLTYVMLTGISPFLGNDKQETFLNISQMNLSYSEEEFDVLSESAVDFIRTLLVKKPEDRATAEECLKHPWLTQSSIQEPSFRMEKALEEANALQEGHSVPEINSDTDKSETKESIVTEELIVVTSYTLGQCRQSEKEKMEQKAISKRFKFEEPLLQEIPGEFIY
As to conditions: STK17A (DRAK1), LanthaScreen Binding.

Each structure is given as a SMILES string. Like-named read-outs stand apart in the source and are kept apart here.

Sequence of off-target kinases (Homo sapiens, UniProt P10721, T670I) (P10721 26-976 T670I): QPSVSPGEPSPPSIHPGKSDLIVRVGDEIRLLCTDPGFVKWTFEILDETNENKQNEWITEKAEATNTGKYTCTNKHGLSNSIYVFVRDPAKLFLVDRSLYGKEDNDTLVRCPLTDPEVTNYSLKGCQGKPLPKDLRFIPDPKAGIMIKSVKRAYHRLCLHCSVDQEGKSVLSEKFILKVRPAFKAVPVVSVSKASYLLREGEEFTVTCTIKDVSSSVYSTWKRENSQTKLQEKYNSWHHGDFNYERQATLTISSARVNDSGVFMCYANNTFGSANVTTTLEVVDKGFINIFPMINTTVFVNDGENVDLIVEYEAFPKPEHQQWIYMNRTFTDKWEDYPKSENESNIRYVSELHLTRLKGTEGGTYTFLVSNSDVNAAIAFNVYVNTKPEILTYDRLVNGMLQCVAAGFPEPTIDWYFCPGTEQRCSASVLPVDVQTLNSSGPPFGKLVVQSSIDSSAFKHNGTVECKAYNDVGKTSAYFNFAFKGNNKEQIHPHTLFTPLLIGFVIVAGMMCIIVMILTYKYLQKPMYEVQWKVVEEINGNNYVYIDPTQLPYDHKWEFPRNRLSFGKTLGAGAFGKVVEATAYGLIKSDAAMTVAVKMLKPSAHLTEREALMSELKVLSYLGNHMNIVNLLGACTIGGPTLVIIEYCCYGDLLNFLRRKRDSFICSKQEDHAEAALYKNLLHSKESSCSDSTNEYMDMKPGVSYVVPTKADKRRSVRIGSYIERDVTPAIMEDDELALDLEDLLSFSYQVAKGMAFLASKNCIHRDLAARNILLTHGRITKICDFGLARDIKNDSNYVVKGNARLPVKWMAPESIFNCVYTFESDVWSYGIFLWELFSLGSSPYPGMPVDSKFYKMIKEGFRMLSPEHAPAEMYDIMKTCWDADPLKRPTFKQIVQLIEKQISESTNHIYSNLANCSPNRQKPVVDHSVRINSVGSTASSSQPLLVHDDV
Sequence of off-target kinases (Homo sapiens, UniProt P68400) (P68400 whole entry): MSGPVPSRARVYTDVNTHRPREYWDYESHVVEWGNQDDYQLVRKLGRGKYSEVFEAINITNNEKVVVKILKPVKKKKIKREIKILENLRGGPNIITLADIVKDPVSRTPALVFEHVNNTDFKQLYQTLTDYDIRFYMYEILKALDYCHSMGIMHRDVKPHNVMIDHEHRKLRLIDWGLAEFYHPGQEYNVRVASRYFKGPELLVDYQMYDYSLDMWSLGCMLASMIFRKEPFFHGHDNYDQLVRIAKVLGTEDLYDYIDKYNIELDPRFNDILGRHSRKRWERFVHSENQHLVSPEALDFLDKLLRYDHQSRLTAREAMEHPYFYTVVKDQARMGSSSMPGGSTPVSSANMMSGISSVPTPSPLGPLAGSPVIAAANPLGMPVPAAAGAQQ
Sequence of off-target kinases (Homo sapiens, UniProt Q02763, R849W) (Q02763 23-1124 R849W): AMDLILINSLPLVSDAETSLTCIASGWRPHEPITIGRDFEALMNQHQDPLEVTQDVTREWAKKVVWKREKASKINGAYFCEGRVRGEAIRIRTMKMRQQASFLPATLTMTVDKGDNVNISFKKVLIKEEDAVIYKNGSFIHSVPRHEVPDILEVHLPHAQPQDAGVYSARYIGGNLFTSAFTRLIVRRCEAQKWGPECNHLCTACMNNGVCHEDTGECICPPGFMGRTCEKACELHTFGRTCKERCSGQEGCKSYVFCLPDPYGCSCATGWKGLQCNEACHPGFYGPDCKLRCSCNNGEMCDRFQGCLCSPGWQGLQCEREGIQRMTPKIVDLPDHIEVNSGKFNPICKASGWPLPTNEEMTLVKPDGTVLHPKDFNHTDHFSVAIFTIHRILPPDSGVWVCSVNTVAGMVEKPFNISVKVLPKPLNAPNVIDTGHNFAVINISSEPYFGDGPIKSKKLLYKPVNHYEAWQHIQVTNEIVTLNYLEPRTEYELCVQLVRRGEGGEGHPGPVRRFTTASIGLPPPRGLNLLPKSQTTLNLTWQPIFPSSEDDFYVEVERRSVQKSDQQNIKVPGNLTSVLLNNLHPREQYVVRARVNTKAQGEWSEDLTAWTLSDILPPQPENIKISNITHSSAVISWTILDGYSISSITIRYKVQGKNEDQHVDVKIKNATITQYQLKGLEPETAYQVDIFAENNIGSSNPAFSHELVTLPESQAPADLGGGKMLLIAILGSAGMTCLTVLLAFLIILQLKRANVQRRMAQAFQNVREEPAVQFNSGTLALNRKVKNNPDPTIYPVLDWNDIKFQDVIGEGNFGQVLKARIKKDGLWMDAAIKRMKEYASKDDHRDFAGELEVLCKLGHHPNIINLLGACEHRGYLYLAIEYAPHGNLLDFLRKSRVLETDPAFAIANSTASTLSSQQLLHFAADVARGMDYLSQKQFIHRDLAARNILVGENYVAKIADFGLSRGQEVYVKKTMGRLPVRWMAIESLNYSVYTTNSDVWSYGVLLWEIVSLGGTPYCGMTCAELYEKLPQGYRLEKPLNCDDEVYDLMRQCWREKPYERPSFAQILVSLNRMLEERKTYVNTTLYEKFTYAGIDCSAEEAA
Sequence of off-target kinases (Homo sapiens, UniProt O00311) (O00311 whole entry): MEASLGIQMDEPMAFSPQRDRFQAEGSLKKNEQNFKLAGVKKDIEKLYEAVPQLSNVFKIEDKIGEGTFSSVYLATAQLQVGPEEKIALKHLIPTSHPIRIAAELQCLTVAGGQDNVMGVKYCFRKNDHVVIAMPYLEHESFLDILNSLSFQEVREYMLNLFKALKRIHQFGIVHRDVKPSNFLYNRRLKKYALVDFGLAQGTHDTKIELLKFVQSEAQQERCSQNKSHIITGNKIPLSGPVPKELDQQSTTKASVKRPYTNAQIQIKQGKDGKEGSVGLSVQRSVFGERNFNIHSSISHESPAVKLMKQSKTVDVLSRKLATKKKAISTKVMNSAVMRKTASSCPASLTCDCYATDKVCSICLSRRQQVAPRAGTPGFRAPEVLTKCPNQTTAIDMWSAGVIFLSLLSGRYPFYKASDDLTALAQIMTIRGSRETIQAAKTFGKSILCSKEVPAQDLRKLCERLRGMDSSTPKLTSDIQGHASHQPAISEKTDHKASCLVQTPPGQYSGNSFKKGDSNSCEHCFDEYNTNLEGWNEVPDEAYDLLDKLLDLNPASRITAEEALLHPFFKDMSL

Regarding `N#Cc1cc(-c2ncnc(Nc3ccc(N4CCN(C5COC5)CC4)cc3)n2)ccc1OC1CCOCC1` [Compound 1, 5-(4-((4-(4-(oxetan-3-yl)piperazin-1-yl)phenyl)amino)-1,3,5-triazin-2-yl)-2-((tetrahydro-2H-pyran-4-yl)oxy)benzonitrile], the inhibition (commonly the relative decrease from the control value, in per cent) at off-target kinases [1] (read-out: % Inhibition 1) was determined as 100%; on off-target kinases [1] (read-out: % Inhibition 2), 97%; at off-target kinases [1] (read-out: % Inhibition Avg) it was 98%; on off-target kinases [2] (read-out: % Inhibition 1), 52%; at off-target kinases [2] (read-out: % Inhibition 2), 39%; on off-target kinases [2] (read-out: % Inhibition Avg) it was 45%. The inhibition at off-target kinases [3] (read-out: % Inhibition 1) came out at 6%; on off-target kinases [3] (read-out: % Inhibition 2) it was 7%; at off-target kinases [3] (read-out: % Inhibition Avg) it was 6%; at off-target kinases [4] (read-out: % Inhibition 1), 13%; at off-target kinases [4] (read-out: % Inhibition 2), 7%; at off-target kinases [4] (read-out: % Inhibition Avg) it was 10%. For the same compound, the inhibition on off-target kinases [5] (read-out: % Inhibition 1) amounted to 40%; on off-target kinases [5] (read-out: % Inhibition 2) it was 41%; on off-target kinases [5] (read-out: % Inhibition Avg), 41%; at off-target kinases [6] (read-out: % Inhibition 1), 101%; on off-target kinases [6] (read-out: % Inhibition 2), 101%; on off-target kinases [6] (read-out: % Inhibition Avg), 101%.

The values above are taken from US11572590B2, “Methods for evaluating tumor cell spheroids using 3D microfluidic cell culture device” (Dana-Farber Cancer Institute, Inc., priority 2017, dated 2023).
